Source: patent publication US12630536B2, “Cyanotriazine derivative, preparation method therefor, and application thereof” (Chengdu Fanxi Biopharma Co., LTD., priority 2020, dated 2026)

Key:
[1] = target: T1, THR-α ligand-binding domain (H6-THR-α) (Homo sapiens, UniProt P10827); experiment: Co-activated peptide recruitment test of THR-α/RXR/GRIP1 (TR_LBD agonist detection, HTRF); format: biochemical
T1 construct: made in house; host or cells: Escherichia coli BL21 (DE3), vector pET28a
T1 sequence (P10827 148-410 isoform P10827-2 limits assumed): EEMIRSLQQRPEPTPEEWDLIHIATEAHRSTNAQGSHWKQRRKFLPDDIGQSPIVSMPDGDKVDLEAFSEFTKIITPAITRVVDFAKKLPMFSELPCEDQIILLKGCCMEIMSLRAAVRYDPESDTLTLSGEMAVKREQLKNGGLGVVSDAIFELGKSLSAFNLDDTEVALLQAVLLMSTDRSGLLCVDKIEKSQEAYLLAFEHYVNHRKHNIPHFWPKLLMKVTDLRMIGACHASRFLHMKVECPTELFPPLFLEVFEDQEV
T1 sequence (P19793 225-462 partner limits assumed): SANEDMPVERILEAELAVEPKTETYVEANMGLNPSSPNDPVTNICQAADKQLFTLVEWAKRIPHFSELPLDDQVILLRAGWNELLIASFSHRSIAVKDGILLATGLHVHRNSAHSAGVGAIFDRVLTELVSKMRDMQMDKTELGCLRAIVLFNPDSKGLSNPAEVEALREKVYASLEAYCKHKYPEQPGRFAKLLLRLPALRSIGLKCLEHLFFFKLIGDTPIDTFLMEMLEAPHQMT
T1 sequence (Q15596 679-703 partner limits assumed): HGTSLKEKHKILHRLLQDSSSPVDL
Method: A ligand binding domain of THR-β (amino acids 148-410) (H6-THR-β) and a ligand binding domain of THR-α (amino acids 202-461) (H6-TRα) were cloned into E. coli expression vector pET28a (Novagen, Milwaukee, Wis.) containing N-terminal six His sequences. The resulting recombinant six-His-tagged protein was produced in E. coli BL21(DE3) cells. The cells were grown in Terrific Broth (self-used self-prepared Bacto tryptone (3.3%, w/v), Difico yeast extract (2.0%, w/v) and NaCl (0.5%, w/v) medium), incubated at 25° C. for 24 hours using a shake flask in 0.2 mM IPTG, harvested or dissolved with 5 volumes of buffer A (0.05 M Tris, 0.3 M NaCl, 1% W/V betaine, 0.01 M imidazole, 0.02 M b-mercaptoethanol, pH 8.0). Lysozyme (1.0 mg/ml, Sigma) and CompleteProtease Inhibitor Cocktail (Roche Diagnostics Gmbh) were added to the slurry and the solution was sonicated for one minute and 5 times at 4° C. The suspension was centrifuged at 127,300 RCF for 2 hours in a Ti45 Beckmann rotor and the supernatant was loaded onto an NI NTAAgarose (Quigen 30210) column. After washing with the buffer A, […] or H6-THR-α was eluted with the buffer A containing 0.25 M imidazole.
30 microliters of H6-THR-β (50 nM) or H6-THR-α in 50 mM Hepes, pH 7.0, 1 mM DTT, 0.05% NP40 and 0.2 mg/ml BSA (binding buffer) were mixed with an equal volume of EE-RxRα (50 nM) in the binding buffer. […] Aliquot ([…]) was transferred to a 384-well black microtiter plate. HTRF signal was read on a Victor5 reader (PerkinElmer Life and Analytical Sciences). EC50 was calculated.
Gene clones expressing a ligand-binding domain (amino acids 148-410) of THR-β (H6-THR-β) and a ligand-binding domain (amino acids 202-461) of THR-α (H6-THR-α) were inserted into an Escherichia coli expression vector pET28a, and the expression vector contained one N-terminal 6-His sequence. The expression vector was introduced into an Escherichia coli BL21 (DE3) strain to produce a recombinant protein with a His tag. […] After finishing culturing, a bacterium in culture was collected, and the collected bacterium was resuspended with a lysis solution (0.05 M Tris, 0.3 M NaCl, 1% W/V betaine, 0.01 M imidazole, 0.02 M β-mercaptoethanol, and pH 8.0) with a volume 5 times that of the bacterium, and lysozyme and protease inhibitors were added at the same time, the treated bacteria was subjected to ultrasonic lysis (5 times per minute) in ice bath (4° C.). A lysed suspension was centrifuged at 127300 RCF for 2 hours, a supernatant was loaded on a NI_NTA agarose (Quigen 30210) column, and after washing with a buffer A, an H6-TRβ or H6-TRα protein was eluted with the buffer A containing 0.25 M imidazole.
A human retinol X receptor (amino acid 225-462) (RxRα) was subjected to engineering modification, so that an N-terminal of the human retinol X receptor had His6 and EE(EFMPME) tags, and then the human retinol X receptor was cloned into a pACYC vector, and produced a His6 EEtagged protein in Escherichia coli. IPTG with a final concentration of 0.1 mM was added into the culture medium for induction, and cultured in a shaking flask at 18° C. for 18 hours. After finishing culturing, a bacterium in culture was collected, and the collected bacterium was re-suspended with a lysis solution (0.05 M Tris, 0.3 M NaCl, 1% W/V betaine, 0.01 M imidazole, 0.02 β-mercaptoethanol, and pH 8.0) with a volume 5 times that of the bacterium, lysozyme and protease inhibitors were added at the same time, and stirred at 4° C. for 30 minutes. Then, a suspension was subjected to an ultrasonic treatment at 4° C. for 30 seconds for 5 times. The suspension was collected, and centrifuged at 12000 RCF for 20 minutes. A supernatant was collected, and the supernatant was filtered with a membrane with a pore size of 0.45 μm, and then added with 0.5% NP-40.

[2] = test system: TR beta-UAS-bla HEK 293T Cells; experiment: TR cell-based agonist detection, β-lactamase reporter (LiveBLAzer FRET B/G), TR beta
Method: A method for testing a THR-α/β activation activity of a compound by an in-vitro cell level was as follows.
Compounds were transferred to a 384-well plate by an ECHO liquid workstation, and each compound was diluted by 3 times with 10 gradient concentrations, which was in triplicate. 1.5×10^4 DMEM-cultured cells (TR beta-UAS-bla HEK 293T Cells) or 1.0×10^4 TR alpha-UAS-bla HEK 293T Cells were placed in the 384-well plate. HEK 293T-TR beta was incubated in an incubator for 16 hours, and HEK 293T-TR alpha was incubated in an incubator for 24 hours. A LiveBLAzer™-FRET B/G (CCF4-AM) substrate was added into the cell plate to detect expression of β-lactamase in cells, and under excitation of 409 nm, a product produced fluorescence with a wavelength of 447 nm. When the β-lactamase was not expressed, under excitation of 409 nm, fluorescence with a wavelength of 520 nm was directly produced through FRET. Combination between the compound and the protein was determined by detecting a ratio of the two kinds of fluorescence (blue/green, 460 nm/530 nm), thus calculating EC50 of the compound. […] Calculation of a factor Z (greater than 0.5) would be used for monitoring a stability of each experiment.

EC50 ([1]; Detection of TR_LBD agonist, read-out: TR_α_EC50): 35.3 nM | Maximum activity ratio (A520/A495) ([1]; TR_LBD agonist, TR_α): 3.83 | Measurement of cpd/T3 (maximum ratio) ([1]; TR_LBD agonist, TR_α, maximum relative to T3): 71.1%
SMILES: Cn1cnc2ccc(Oc3c(Br)cc(-n4nc(C#N)c(=O)[nH]c4=O)cc3Br)cc21 [Compound 1, 2-(3,5-dibromo-4-((1-methyl-1H-benzo[d]imidazol-6-yl)oxy)phenyl)-3,5-dioxo-2,3,4,5-tetra hydro-1,2,4-triazine-6-carbonitrile]
Emax ([2]; Homo sapiens, HEK-293T, 16 h, TR_cell-based agonist, TR_β, read-out: Maximum activity ratio (A460/A530)): 41.1% | EC50 ([2]; Homo sapiens, Detection of TR_cell-based agonist, HEK 293T-TR beta, 16 hours, read-out: TR_β_EC50): 577 nM | Measurement of cpd/T3 (maximum ratio) ([2]; TR_cell-based agonist, TR_β, maximum relative to T3): 7.5% | α/β ([2]; TR_cell-based agonist, ratio TR_α EC50 / TR_β EC50): 7.49
